The source of these data is US20030162803A1, “Anhydrovinblastine for the treatment of cancer” (priority 1997, published 2003).

Molecules are shown by their SMILES. Structures can show the parent of a compound that is named as a salt. Where two headings read alike, the source gives them in different places.

The test system of series [1] is MCF7 human breast carcinoma. Nature of the series: MTT cytotoxicity assay, MCF7. The series is classed as cell-based. The settings on record: read-out: Drug Ic50. (Tetrazolium dyes change colour on reduction, which living cells bring about.)
Procedure: (§1) Cytotoxicity experiments on AHVB were performed as direct comparisons with vincristine and Navelbine™ in order to assess its inherent antineoplastic profile against a variety of tumor cell types relative to other relevant vinca alkaloids. The cytotoxicity of AHVB was investigated in vitro against a panel of tumor cell lines of varying lineage in order to determine the specificity of its antitumor activity with respect to cell type.
(§2) Standard dose response cytotoxicity assays (R. Mosmass, J. Immunol. Meth., 65:55-64, 1983) were utilized to determine the IC50 (drug concentration required to induce 50% inhibition of tumor cell growth) for vincristine, Navelbine™ and AHVB. The indicated cell lines were obtained from either the ATCC or NCI tumor repository and were cultured in tissue culture media by standard techniques well known to those skilled in the art, prior to dilution to a defined cell concentration required for the studies in 96 well plates.
(§3) A wide range of drug concentrations were exposed to tumor cells growing at log phase in 96-well microtitre plates. Cell concentrations depended on the cell line as well as the length of time to be cultured. […] MCF7 cells were plated at a concentration of 7,000 and 1,500 cells per well for studies lasting 3 and 7 days, respectively. H460 cells were plated at a concentration of 2,500 and 1,000 cells per well for studies lasting 3 and 7 days, respectively. K562 cells were plated at a concentration of 1,500 and 10,000 cells per well for studies lasting 1 and 3 days, respectively. LS180 cells were plated at a concentration of 5,000 and 20,00 cells per well for studies lasting 3 and 7 days, respectively.
(§4) Subsequently the plates were incubated for the indicated time period. At specified times, cells were washed and subsequently exposed to the dye inclusion marker MTT (3-(4,5-dimethylthiazol-2-yl)-2,5-diphenyl tetrazolium), which accumulated into viable cells. MTT was added to the cells at a final concentration of 50 μg per well. After a 4 hour incubation, the cells were washed free of media and unreacted MTT, prior to addition of DMSO which was required to solubilize the insoluble formazan precipitate that formed in viable cells. After the sample was mixed through repeated pipetting, the coloured product was measured using a plate reader operating at 570 nm. The absorbance values obtained for cells cultured in the absence of drug was assumed to represent 100% viability.
Series [2] relates to H460 human non-small cell lung carcinoma. Nature of the series: MTT cytotoxicity assay, H460. It counts as cell-based. The settings on record: read-out: Drug Ic50.
Procedure: as §1, §2, §3, §4
The test system of series [3] is P388 lymphocytic leukaemia. Nature of the series: MTT cytotoxicity assay, P388. Conditions: for IC50: read-out: Drug Ic50.
Procedure: Standard dose response cytotoxicity assays (R. Mosmass, J. Immunol. Meth., 65:55-64, 1983) were utilized to determine the IC50 (drug concentration required to induce 50% inhibition of tumor cell growth) for vincristine, Navelbine™ and AHVB.
A wide range of drug concentrations were exposed to tumor cells growing at log phase in 96-well microtitre plates. Cell concentrations depended on the cell line as well as the length of time to be cultured. Typically, P388 cells were plated at a concentration of 30,000, 2,000 and 750 cells per well for studies lasting 1, 3 and 7 days, respectively. MCF7 cells were plated at a concentration of 7,000 and 1,500 cells per well for studies lasting 3 and 7 days, respectively. H460 cells were plated at a concentration of 2,500 and 1,000 cells per well for studies lasting 3 and 7 days, respectively. K562 cells were plated at a concentration of 1,500 and 10,000 cells per well for studies lasting 1 and 3 days, respectively. LS180 cells were plated at a concentration of 5,000 and 20,00 cells per well for studies lasting 3 and 7 days, respectively. After plating all cell lines were incubated (CO2 incubator at 37° C., 5% CO2) for 24 hours prior to addition of the cytotoxic agent (See Table 1).
as §4
A cytotoxicity curve was generated to estimate the IC50 of vincristine, Navelbine™ and AHVB in the murine P388 cell line (see FIG. 5). In this study, P388 cells derived from an ascitic tumor grown in BDF1 were first separated from red cells employing Ficoll-Paque. Isolated white cells were washed twice then placed in serum containing tissue culture media (1×10^5 cells per ml of RPMI 1640 supplemented with L-glutamine, penicillin, streptomycin and 10% fetal bovine serum) and cultured for 2 hours. All non-adherent cells were collected and that cell population was defined as P388 cells and used for cytotoxicity assays 24 hours later.
The subject of series [4] is LS180 human colon carcinoma. The series can be described thus: MTT cytotoxicity assay, LS180. It counts as cell-based. The settings on record: read-out: Drug Ic50.
Procedure: as §1, §2, §3, §4
Series [5] relates to Nb2-U17 lymphoma transplants. Nature of the series: Rat U17 lymphoma model (Nb2-U17 tumor transplants). It counts as in vivo, Nb rats. The settings on record: for anti-tumor potency compared: 50% of individual maximum tolerated doses, FIG. 3. The text has this: The U17 cell line was originally derived from a transplantable malignant lymphoma that arose spontaneously in male Noble rats (British Columbia Cancer Research Centre Joint Animal Breeding Facility with parents obtained from the National Institutes of Health, Bethesda, Md.). The cell line is prolactin dependent and can readily be cultured in vitro. U17 derived solid tumors are generated by subcutaneous injection (via the trocar method) of a small (2 mm^2) piece of tumor tissue obtained from male Noble rat. Tumor tissue used for the implants arose two weeks after injection of 5×10^6 U17 cells (from culture) subcutaneously in the nape of the neck. For assessing the anti-tumor activity of AHVB, tumor bearing animals (2-4 gm tumors) were given a single treatment of drug and tumor size was measured as a function of time following treatment. The anti-tumor activity was assessed at a series of different doses in order to determine the maximum therapeutic dose of AHVB. Comparative studies between vincristine, vinblastine and AHVB were performed. For these studies anti-tumor activity was determined at the maximum therapeutic dose of each drug.
Cultures of the non-metastatic, pre-T Nb2 lymphoma line originally developed at The University of British Columbia and designated Nb2-U17 (Anticancer Research 14:2485-2492, 1994), and are available from the British Columbia Cancer Research Centre. Cells from exponentially growing Nb2-U17 suspension cultures were injected subcutaneously into methoxyflurane-anaesthetised, mature male Nb rats (5 rats; 310-380 grams; 5×10^6 cells/rat in 1 ml of culture medium) at the nape of the neck using a 1.5″ 20-gauge needle. […]
The oncolytic effects of each of the three drugs were assessed at a subacutely toxic dose, determined for each drug in preliminary studies using non-tumor-bearing, mature male Nb rats, i.e. 3.0, 2.0 and 0.7 mg/kg for AHVB, Navelbine™ and vincristine, respectively as illustrated in FIG. 2. In addition, each drug was assessed at 50% and 25% of its subacutely toxic dose. […]

Series [6] relates to K562 human erythroleukaemia. The series can be described thus: MTT cytotoxicity assay, K562. The series is classed as cell-based. Conditions: read-out: Drug Ic50.
Procedure: as §1, §2, §3, §4
A short description of series [7]: Range-finding acute (14 day) single dose toxicity in healthy male Nb rats. It counts as in vivo. Conditions: single intraperitoneal injection; for subacutely toxic dosage (highest dose which allowed survival of all animals in a group): 14 day. The procedure:
Range-finding acute (14 day), single dose toxicity studies were performed in healthy male Nb rats in order to determine the maximum tolerated dose of vincristine sulfate, Navelbine T and AHVB when administered as a single, intraperitoneal injection in these rodents (see Table 2).
To this end, healthy non-tumor bearing male Nb rats (weight range 333-399 grams) were divided in groups of 3 animals. Each group was used to test one drug at one dosage. The volumes within which the drugs were administered depended on the concentration of the drug solution (in saline) and the weight of the animals, and ranged from 0.1-1.0 ml. Saline was used as a control. The highest dose of each drug which allowed survival of all animals in a group (3 out of 3) was taken as the subacutely toxic dosage for the drug, i.e. 0.7 mg/kg for vincristine, 2.0 mg/kg for Navelbine™ and 3.0 mg/kg for AHVB.
The health of the animals was assessed by daily weight measurements in addition to behavioural indications of stress. Animals continued to be monitored throughout the complete 14 day study period. Animals were euthanized in the event of signs of severe stress or weight loss in excess of 20%. All animals were necropsied at the end of the study period or at the time of premature euthanasia.

[8] abbreviates: Homo sapiens, 72 h, MCF7, exposure time 3 days.
Setting [9] is: Homo sapiens, 168 h, MCF7, exposure time 7 days.
Setting [10] is: Homo sapiens, NCI-H460, 72 h, H460, exposure time 3 days.
The mark [11] stands for this setting: Homo sapiens, NCI-H460, 168 h, H460, exposure time 7 days.
[12] abbreviates: Homo sapiens, 72 h, LS180, exposure time 3 days.
[13] abbreviates: Homo sapiens, 168 h, LS180, exposure time 7 days.
Setting [14] is: Homo sapiens, 24 h, K562, exposure time 1 day.
Setting [15] is: Homo sapiens, 72 h, K562, exposure time 3 days.

Consider `CCC1=C[C@H]2CN(CCc3c([nH]c4ccccc34)[C@@](C(=O)OC)(c3cc4c(cc3OC)N(C)[C@H]3[C@@](O)(C(=O)OC)[C@H](OC(C)=O)[C@]5(CC)C=CCN6CC[C@]43[C@@H]65)C2)C1` [AHVB, 3′,4′-anhydrovinblastine], for which the IC50 (as a rule, the point on the concentration scale where inhibition reaches its midpoint) was above 2500 nM in series [1] (MCF7, exposure time 3 days); 31.3 ± 12.4 nM in series [1] (MCF7, exposure time 7 days); 10 nM in series [2] (H460, exposure time 3 days); 5 nM in series [2] (H460, exposure time 7 days); 140 ± 53 nM in series [3] (P388, exposure time 1 day); 15 ± 8.7 nM in series [3] (P388, exposure time 3 days). Further, the IC50 in series [3] (P388, exposure time 7 days) was 20 nM; in series [4] (LS180, exposure time 3 days) it was above 50 nM; in series [4] (LS180, exposure time 7 days) it was 17.5 nM; in series [6] (K562, exposure time 1 day), above 50 nM; in series [6] (K562, exposure time 3 days) it was 18.8 ± 8.8 nM. The “fold less active on per molar basis than vincristine and Navelbine” value in series [3] (in vitro tests, Table I and FIG. 5) lay in the range of 10 to 15 fold. In addition, the anti-tumor potency compared result in series [5] is reported as “less potent than vincristine”. The “Mortality (surviving rats/injected rats)” value in series [7] (4.4 mg/kg) and in series [7] (10 mg/kg) was 0 surviving rats/injected rats throughout. Besides, the “subacutely toxic dosage (highest dose which allowed survival of all animals in a group)” value (from here on “subacutely toxic dosage”) in series [7] is on record as 3.0 mg/kg.

Consider `CCC1=C[C@@H]2CN(C1)Cc1c([nH]c3ccccc13)[C@@](C(=O)OC)(c1cc3c(cc1OC)N(C)[C@H]1[C@@](O)(C(=O)OC)[C@H](OC(C)=O)[C@]4(CC)C=CCN5CC[C@]31[C@@H]54)C2` [Navelbine, 3′,4′-didehydro-4′-deoxy-C′-norvincaleukoblastine-di-L-tartrate], for which the concentration for half-maximal inhibition (IC50) in series [1] (setting [8]) was above 2500 nM; in series [1] (setting [9]) it was 2.6 ± 1.6 nM; in series [2] (setting [10]), 0.3 nM; in series [2] (setting [11]), above 0.5 nM; in series [3] (Mus musculus, P388, 24 h), 20 nM; in series [3] (Mus musculus, P388, 72 h) it was 0.7 ± 0.3 nM. Further, the concentration for half-maximal inhibition (IC50) in series [3] (Mus musculus, P388, 168 h) was 2.5 nM; in series [4] (setting [12]), above 50 nM; in series [4] (setting [13]) it was 0.5 nM; in series [6] (setting [14]), above 50 nM; in series [6] (setting [15]) it was 2.5 ± 2.2 nM. Moreover, the anti-tumor potency compared result in series [5] is recorded as “less potent than AHVB”. Moreover, the “Mortality (surviving rats/injected rats)” value in series [7] (5 mg/kg) and in series [7] (10 mg/kg) was 0 surviving rats/injected rats throughout. For the same compound, the “subacutely toxic dosage” value in series [7] is on record as 2.0 mg/kg.

On to `CC[C@]1(O)C[C@H]2CN(CCc3c([nH]c4ccccc34)[C@@](C(=O)OC)(c3cc4c(cc3OC)N(C=O)[C@H]3[C@@](O)(C(=O)OC)[C@H](OC(C)=O)[C@]5(CC)C=CCN6CC[C@]43[C@@H]65)C2)C1` [Vincristine, Sulfate of 22-oxovincaleukoblastine], for which the IC50 is above 2500 nM in series [1] (setting [8]); 2.6 ± 1.6 nM in series [1] (setting [9]); 3.5 nM in series [2] (setting [10]); 2.5 nM in series [2] (setting [11]); 11 ± 3.6 nM in series [3] (Mus musculus, P388, 24 h); 1 ± 0.3 nM in series [3] (Mus musculus, P388, 72 h). In addition, the IC50 was 2 nM in series [3] (Mus musculus, P388, 168 h); above 50 nM in series [4] (setting [12]); 1.5 nM in series [4] (setting [13]); above 50 nM in series [6] (setting [14]); 1.5 ± 0.4 nM in series [6] (setting [15]). In series [5] (single intraperitoneal subacutely toxic dose, FIG. 2), the recurrence of tumors result was “not observed”. Also, the “Mortality (surviving rats/injected rats)” value in series [7] (1 mg/kg) is given as 0 surviving rats/injected rats. In series [7], the “subacutely toxic dosage” value was 0.7 mg/kg.
